Test results reported in US5096924A, “Anticancer antibiotic MI43-37F11 substance” (501 Azidan Hojin Biseibutsu Kagaku Kenkyu Kai, priority 1989, dated 1992).
≈ marks a conversion by molar mass, not a printed value. Entries after “also recorded” stand apart in the source; their conditions may differ.

Key:
Ehrlich carcinoma = assay: Therapeutic treatment of Ehrlich carcinoma-bearing mice by intraperitoneal injection; type: in vivo, ICR mice
Experimental: (a) Experiments for therapeutic treatment of Ehrlich carcinoma-bearing mice were conducted by intraperitoneal injection of the antibiotic MI43-37F11 substance. Thus, a cell suspension of Ehrlich ascites carcinoma cells was subcutaneously inoculated at the abdominal region of ICR mice (female, 6-week old, 4 mice in each treated group) so that the number of the carcinoma cells as subcutaneously transplanted was 2×10^6 cells per mouse. After the transplantation of the carcinoma cells, the antibiotic MI43-37F11 substance was administered by intraperitoneal injection to the mice having the transplanted and firmly grown carcinoma cells, according to the following schedule of administration. Namely, MI43-37F11 substance was administered at a dosage of 10 mg/kg or 2.5 mg/kg or 0.625 mg/kg only once on the 7th day after the transplantation of the cells, or alternatively MI43-37F11 substance was administered at a dosage of 2.5 mg/kg or 1.25 mg/kg or 0.625 mg/kg, totally five times but every other day from the 7th day to the 14th day after the transplantation of the carcinoma cells. The administration of MI43-37F11 substance was not made but intraperitoneal injection of physiological saline was made in the mice of the control group (untreated) (8 mice in each control group).
On the 15th day after the transplantation of the carcinoma cells, the mass of the tumor (carcinoma) was surgically removed out of each mouse and weighed. The rate of the reduction in the weight of the tumor (carcinoma) obtained from the group of mice treated with MI43-37F11 substance was evaluated in term of the rate (%) of inhibition, with such an assumption that the weight of the tumor obtained from the control group of mice was amounting to 100. In other words, the rate (%) of inhibition to the growth of Ehrlich carcinoma was calculated according to the following equation [formula] where C means the weight of the tumor in the control group of mice (untreated) and T means the weight of the tumor of the treated group of mice.

mouse Leukemia P388 = assay: Inhibition of proliferation of mouse leukemia P388 cells; type: cell-based; conditions: 48 h; mouse leukemia P388, 37° C, 2 days
Experimental: (§1) A cell suspension containing cells of mouse Leukemia L1210, mouse Leukemia P388, mouse Leukemia EL4, mouse IMC carcinoma or human lung cancer LX-1 cells in a culture medium containing 10% calf serum at a cell density of 1 x 10^5 cells/ml was prepared, and 200 μl-portion of the cell suspension so prepared was placed in a microplate and then added with a solution of MI43-37F11 substance at varying concentrations (dissolved in a mixture of water and dimethylsulfoxide (95:5)). The cell suspension containing the test compound added was subsequently incubated at 37° C for 2 days (but 5 days for the LX-1 cells).
(§2) After the incubation, the number of the cells of the L1210 cells, P388 cells, the EL4 cells and the IMC carcinoma cells in the treated groups was counted by means of Coulter-counter. The control group (untreated) of the cell suspension to which the test compound was not added was incubated in the same way as above and then the number of the cells was similarly counted.
(§3) Rate (%) of inhibition of the cell proliferation of the treated group against that of the control group (untreated) was evaluated. […]

Toxicity to mammalian = type: in vivo; conditions: general statement, no data
interleukin-1 = assay: Enhancement of the production of interleukin-1 in vivo (uptake of 3H-TdR by D10.G4.1 cells); design: species or system CDF1 mice
Experimental: (5) Experiments for estimation of the activity of the antibiotic MI43-37F11 substance to enhance the production of interleukin-1 in vivo was conducted by the following procedure. Thus, MI43-37F11 substance was orally administered to CDF1 mice (female, 6-week old) B at a dosage of 25 mg/kg. One day, 3 days, 5 days and […] the administration, peritoneal exudate cells (PEC) and spleen cells were respectively harvested from the mice of the treated group. The peritoneal exudate cells and spleen cells as harvested were independently divided into two classes, namely the class of the adherent cell which was adherent in its nature to the wall of a plastic dish and the class of the non-adherent cell. The whole peritoneal exudate cells (PEC), the adherent cells of PEC and the adherent cells of the spleen cell were separately suspended into aliquots of a culture medium to give a cell concentrations of 1×10^6 cells/well, 2×10^6 cells/well and 2.5×10^6 cells/well, respectively. After the incubation for 24 hours, the supernatants were collected by filtration of the incubated culture media and then assayed for their activity of interleukin-1 (IL-1) according to the method of Jonathan K. et al (see "Lymphokine Research" 3 (4), 175-182, (1984)). Namely, 100 μl of each supernatant obtained as above and Concanavalin A (to a final concentration of 2.5 μg/ml) were added to 100 μl of a cell suspension containing 1 x 10^5 cells/m(of D10.G4.1. cells which will proliferate in the presence of Concanavalin A plus interleukin-1 when the latter compounds are given. The resulting mixture was then incubated for 48 hours and then added with ^3 H-thymidine (^3 H-TdR), followed by further incubation for 16 hours. After this, the rate of uptake of ^3 H-TdR by the D10.G4.1. cells was determined in term of the radio-activity unit of c.p.m. The rate of uptake of ^3 H-TdR in the control group of mice (untreated) was also determined in the same manner as above.

mouse IMC carcinoma = assay: Inhibition of proliferation of mouse IMC carcinoma cells; type: cell-based; conditions: 48 h, 37° C, 2 days
Experimental: as §1, §2, §3

For COc1cc(O)c2c(=O)oc(CO)cc2c1 [MI43-37F11 substance], the “Rate (%) of Inhibition” value (Ehrlich carcinoma; 0.625 mg/kg i.p., 7th day (only once), tumor weight on 15th day) was 12%, the “Rate (%) of Inhibition” value (Ehrlich carcinoma; 0.625 mg/kg/day i.p., 7th day to 14th day, every second day, totally 5 times) was 30% and the “Rate (%) of Inhibition” value (Ehrlich carcinoma; 1.25 mg/kg/day i.p., 7th day to 14th day, every second day, totally 5 times) was 67%. For the same compound, the “Rate (%) of Inhibition” value (Ehrlich carcinoma; 2.5 mg/kg i.p., 7th day (only once), tumor weight on 15th day) was 51%, the “Rate (%) of Inhibition” value (Ehrlich carcinoma; 2.5 mg/kg/day i.p., 7th day to 14th day, every second day, totally 5 times) was 60% and the “Rate (%) of Inhibition” value (Ehrlich carcinoma; 10 mg/kg i.p., 7th day (only once), tumor weight on 15th day) was 59%. The IC50 (mouse Leukemia P388) was 50 µg/mL (≈ 225 µM), the toxicity to mammalian (Toxicity to mammalian) was “low toxicity to mammalian; also recorded: without showing any observable toxicity to mammalian” and the “Uptake of 3H-TdR, T/C %” value (interleukin-1; adherent cell in PEC, 1 day after 25 mg/kg oral) was 165.8%. For the same compound, the “Uptake of 3H-TdR, c.p.m. ± S.D.” value (interleukin-1; adherent cell in PEC, 1 day after 25 mg/kg oral, control 10561 ± 1241, **) was 17510 ± 810 c.p.m, the “Uptake of 3H-TdR, T/C %” value (interleukin-1; adherent cell in PEC, 3 days after 25 mg/kg oral) was 131.7% and the “Uptake of 3H-TdR, c.p.m. ± S.D.” value (interleukin-1; adherent cell in PEC, 3 days after 25 mg/kg oral, control 10561 ± 1241, **) was 13912 ± 1367 c.p.m. For the same compound, the “Uptake of 3H-TdR, T/C %” value (interleukin-1; adherent cell in PEC, 5 days after 25 mg/kg oral) was 253.4%, the “Uptake of 3H-TdR, c.p.m. ± S.D.” value (interleukin-1; adherent cell in PEC, 5 days after 25 mg/kg oral, control 10561 ± 1241, ***) was 26759 ± 3601 c.p.m and the “Uptake of 3H-TdR, T/C %” value (interleukin-1; adherent cell in PEC, 7 days after 25 mg/kg oral) was 167.0%. For the same compound, the “Uptake of 3H-TdR, c.p.m. ± S.D.” value (interleukin-1; adherent cell in PEC, 7 days after 25 mg/kg oral, control 10561 ± 1241, *) was 17639 ± 2699 c.p.m, the “Uptake of 3H-TdR, T/C %” value (interleukin-1; adherent cell in spleen cells, 1 day after 25 mg/kg oral) was 83.3% and the “Uptake of 3H-TdR, c.p.m. ± S.D.” value (interleukin-1; adherent cell in spleen cells, 1 day after 25 mg/kg oral, control 2091 ± 481) was 1741 ± 352 c.p.m. For the same compound, the “Uptake of 3H-TdR, T/C %” value (interleukin-1; adherent cell in spleen cells, 3 days after 25 mg/kg oral) was 232.8%, the “Uptake of 3H-TdR, c.p.m. ± S.D.” value (interleukin-1; adherent cell in spleen cells, 3 days after 25 mg/kg oral, control 2091 ± 481, **) was 4868 ± 497 c.p.m and the “Uptake of 3H-TdR, T/C %” value (interleukin-1; adherent cell in spleen cells, 5 days after 25 mg/kg oral) was 102.3%. The “Uptake of 3H-TdR, c.p.m. ± S.D.” value (interleukin-1; adherent cell in spleen cells, 5 days after 25 mg/kg oral, control 2091 ± 481) was 2140 ± 121 c.p.m, the “Uptake of 3H-TdR, T/C %” value (interleukin-1; adherent cell in spleen cells, 7 days after 25 mg/kg oral) was 114.1% and the “Uptake of 3H-TdR, c.p.m. ± S.D.” value (interleukin-1; adherent cell in spleen cells, 7 days after 25 mg/kg oral, control 2091 ± 481) was 2385 ± 134 c.p.m. For the same compound, the “enhance the in vivo production of interleukin-1” value (interleukin-1; summary in words) was “effective”, the “Uptake of 3H-TdR, T/C %” value (interleukin-1; whole PEC, 1 day after 25 mg/kg oral) was 61.3% and the “Uptake of 3H-TdR, c.p.m. ± S.D.” value (interleukin-1; whole PEC, 1 day after 25 mg/kg oral, control 7166 ± 752, **) was 4393 ± 397 c.p.m. For the same compound, the “Uptake of 3H-TdR, T/C %” value (interleukin-1; whole PEC, 3 days after 25 mg/kg oral) was 83.6%, the “Uptake of 3H-TdR, c.p.m. ± S.D.” value (interleukin-1; whole PEC, 3 days after 25 mg/kg oral, control 7166 ± 752) was 5988 ± 602 c.p.m and the “Uptake of 3H-TdR, T/C %” value (interleukin-1; whole PEC, 5 days after 25 mg/kg oral) was 391.7%. For the same compound, the “Uptake of 3H-TdR, c.p.m. ± S.D.” value (interleukin-1; whole PEC, 5 days after 25 mg/kg oral, control 7166 ± 752, ***) was 28072 ± 1174 c.p.m, the “Uptake of 3H-TdR, T/C %” value (interleukin-1; whole PEC, 7 days after 25 mg/kg oral) was 54.5% and the IC50 (mouse IMC carcinoma) was 72 µg/mL (≈ 324 µM).
